Test [1] concerns Human melanoma A375 cells. The test is described as follows: Human melanoma A375 subcutaneous xenograft in BALB/c nude mice, intratumoral injection of polypeptides. The test is classed as in vivo. Here is the method: Human melanoma A375 cells in the logarithmic phase of growth were cultured under sterile conditions to prepare a 5×10^6/200 μL cell suspension, and 200 μL cell suspension was separately injected into BALB/c nude mice subcutaneously. An electronic digital vernier caliper was used to measure the long-axis and short-axis diameters of the transplanted tumors, and the formula: Tumor Volume (TV)=½×Long-axis Diameter×Short-axis Diameter^2 was used to calculate the volume of the tumors. The mice were randomly grouped when the tumor volume reach about 100 mm^3.
Polypeptides JWA-1, JWA-2, JWA-3, and an equivalent peptide blend (Pep) of the three polypeptides were injected into the tumors of the various groups of mice respectively, and the doses used were 25 mg/kg and 10 mg/kg, respectively; the negative control group was injected with an equal amount of sterile phosphate-buffered saline (PBS). The polypeptide injection groups and the control group were administered on alternate days (48 hrs interval) by injection for 5 times; and the body weight of the mice and their tumor diameters were measured at each administration. After completion of the experiment the mice were sacrificed after anesthesia, tumors were separated from the bodies and their weight were measured.
In this example, the method for dorsal subcutaneous tumor bearing of BALB/c nude mice by inoculation of A375 cells is the same as Example 2.
The aforementioned BALB/c nude mice inoculated with human melanoma A375 cells by intratumoral injection were separately treated using polypeptide JWA-1 of low dose (5 mg/kg), medium dose (10 mg/kg) and high dose (15 mg/kg); at the same time, a sterile PBS negative control group and a 10 mg/kg non-pep injection group (referred to simply as “non-pep group”, the polypeptide sequence used was SEQ ID NO: 14; […]-EEMQR, the N-terminus thereof being acetylated and the C-terminus thereof amidated) were established. The establishment of the non-pep group was for observing whether JWA polypeptides have any specific anti-tumor effect.
To verify the impact of phosphorylation of S in polypeptide JWA-1 on the anti-tumor effect thereof, a non-phosphorylated polypeptide JWA-7 injection group (10 mg/kg) was added in the aforementioned experiment.
The various groups were administered by intratumoral injection on alternate days for 5 times consecutively; and the body weight of the mice and their tumor diameters were measured at each administration. After completion of the experiment the mice were sacrificed after anesthesia, tumors were separated from the bodies and the tumor weights were measured.
The BALB/c nude mice inoculated with human melanoma A375 cells were separately treated using 10 mg/kg polypeptides JWA-1, JWA-4, JWA-5, and JWA-6; at the same time, a 10 mg/kg non-pep injection group (referred to simply as “non-pep group”, the polypeptide sequence used was the same as Example 3) was established.
The mice with transplanted tumors in this example were the same as Example 2, and the experimental method used therein was also the same as Example 2. The various polypeptides were administered by intratumoral injection at a dose of 10 mg/kg, and a non-pep injection group (referred to simply as “non-pep group”, the polypeptide sequence used was the same as Example 3) was established.
In general terms: A xenograft is tissue or cells of one species grown in another, often human tumour cells in immunodeficient mice.

Test [2] concerns A375 cells. The test is described as follows: Western Blot of apoptosis-related molecules (PARP-1, caspase-3) in A375 cells. The following applies: A375, 24 hrs. The test is classed as cell-based, human. The method, then:
(§1) The combined effect of ATO and polypeptide JWA-6 on the self-destruction of protein expression was also determined A375 cells in the logarithmic phase of growth were conventionally digested and 5×10^5 cells were inoculated evenly in a 60 mm cell culture dish, and different doses of ATO were used to individually treat the cells for 24 hrs, or different doses of ATO in combination with different doses of polypeptide JWA-6 were used to treat the cells for 24 hrs, after which 0.18 mL of RIPA lysis buffer containing 0.5% phenylmethanesulfonyl fluoride (PMSF) was added to extract protein. After centrifugation at 12000×g for 15 minutes, the supernatant was taken, protein concentration was examined. Based on the molecular weight measured, a polyacrylamide gel having a suitable concentration was chosen for protein electrophoresis where each well was added with […] of protein, and the conditions for electrolysis were 60 V, 30 minutes and 90 V, 1-1.5 hrs. After completion of the electrolysis, semi-dry transfer was performed to transfer the protein from the gel onto a polyvinylidene difluoride (PVDF) membrane. After completion of the transfer, the membrane was blocked with 5% skim milk at room temperature for 1-2 hrs. Then, the membrane was washed 3 times (each lasting 5 minutes) using Tris-buffered Saline with Tween (TBST) containing 0.1% Tween-20, and incubation of the corresponding antibody was performed overnight at 4° C. On the next day, membrane was washed 3 times (each lasting 5 minutes) using Tris-buffered Saline with Tween (TBST) containing 0.1% Tween-20; incubation of secondary antibody was performed at room temperature for 1-2 hrs; and again membrane was washed 8 times (each lasting 5 minutes) using Tris-buffered Saline with Tween (TBST) containing 0.1% Tween-20. The membrane was added with enhanced chemiluminescence (ECL) liquid and exposed.
Polypeptide CPP-JWA-6 at a dose of 20 μM, 50 μM was applied individually and applied in combination with ATO (5 μM) on A375 cells (as shown in FIG. 40) and SGC7901 cells (as shown in FIG. 41) for 24 hrs before protein was extracted, and the Western Blot method of Example 7 was used to examine the changes in apoptosis-related molecules.
Background: Immunoblotting shows a protein as a band on a membrane.

The next test has as its system SGC7901 cells. Briefly: Western Blot of PARP-1 in SGC7901 cells. The test is classed as cell-based. To be noted: 24 hrs. Here is the method: as §1, with “exposed. […]” for “exposed.”
Test [3] has as its system Human Melanoma A375 Cells. Briefly: Cell proliferation with CCK8 reagent, A375 cells. The test is classed as cell-based. To be noted: 0-50 μM, 24, 48 and 72 hrs, in comparison with the control group. The method, then:
(§2) B16F10 or A375 cells in the logarithmic phase of growth were trypsinized and seeded in a 96-well plate (5×10^3 cells/well), and were treated with different doses (0 μM, 5 μM, 10 μM, 25 μM, 50 μM) of polypeptide JWA-1, JWA-5, JWA-6 or non-pep (the polypeptide sequence used was the same as Example 3) for 24 hrs, 48 hrs and 72 hrs, respectively. The original culture medium was removed from the 96 wells at the indicated time and cell proliferation was determined with CCK8 reagent according to the manufacturer's instructions. Four duplicate samples were taken from each group and the experiments were repeated for three times.
A general note: Tetrazolium assays rely on reduction of a dye to a coloured formazan, in cell work by metabolically active cells.

Test [4] deals with A375 cells. Briefly: Cytoactivity of A375 cells treated with ATO alone or with polypeptides in combination with ATO. The test is classed as cell-based, human. The following applies: polypeptide 50-500 μM in combination with ATO 0.5-5 μM, 24 and 48 hrs. Here is the method:
Firstly, the dose and time for treatment of A375 cells with ATO were determined. A375 cells in the logarithmic phase of growth were conventionally digested and seeded in a 96-well plate (5×10^3 cells/well), and different doses (5 μM, 10 μM, 25 μM, 50 μM) of ATO were used to treat the cells for 24 hrs and 48 hrs after cell attachment. It was discovered that the activity of A375 cells was reduced by 40% after 24 hrs of treatment with 5 μM ATO (as shown in FIG. 24), and that the cell growth inhibition rate was approximately 100% after 48 hrs of treatment with different doses of ATO (as shown in FIG. 25). Therefore, ATO with a concentration smaller than or equal to 5 μM was chosen to treat the cells for 24 hrs for subsequent reference of dose and time for combined medication.

In test [5] the test system is Mouse Melanoma B16F10 Cells. The test is described as follows: Cell proliferation with CCK8 reagent, B16F10 cells. The test is classed as cell-based. To be noted: 0-50 μM, 24, 48 and 72 hrs, in comparison with the control group. Here is the method:
as §2

The test system of test [6] is human melanoma A375 cells. Briefly: Human melanoma A375 subcutaneous xenograft in NOD/SCID mice, intraperitoneal injection of polypeptides. To be noted: Example 5, alternate days, 5 times. The test is classed as in vivo. The source says:
The polypeptide designed and synthesized in this example was JWA-6+RGD whose sequence was SEQ ID NO: 7, i.e. 6-aminocaproic acid-FPGSDRF-GGGG-RGD, wherein amino acid S was phosphorylated. In addition, the N-terminus of the polypeptide sequence was acetylated and the C-terminus thereof was amidated during synthesis to prevent rapid degradation of the polypeptide. In this example, non-obese diabetic/severe combined immunodeficiency (NOD/SCID) mice were chosen for tumor-bearing model and the method for dorsal subcutaneous tumor bearing by inoculation of human melanoma A375 cells is the same as Example 2. The mice were randomly divided into four treatment groups after the tumors grew to a volume of about 100 mm^3. […]
Then, 50 mg/kg polypeptide JWA-6, 10 mg/kg polypeptide JWA-6+RGD, 50 mg/kg polypeptide JWA-6+RGD, and 50 mg/kg non-pep (the polypeptide sequence used was the same as Example 3) were injected intraperitoneally. The various groups were administered with injection on alternate days for 5 times consecutively; and the body weight of the mice and their tumor diameters were measured at each administration. After completion of the experiment the mice were sacrificed after anesthesia, tumors were separated from the bodies and the tumor weights measured.
Thereafter, the tumor bearing mice were obtained using the foregoing method of this example and divided into seven injection groups which were intraperitoneally injected with polypeptides JWA-6+RGD, JWA-6+RGD0, JWA-6+RGD1, JWA-6+RGD3, JWA-6+RGD7, JWA-6+RGD10, and non-pep (the polypeptide sequence used was the same as Example 3) at a dose of 50 mg/kg. The various groups were administered by intraperitoneal injection on alternate days for 5 times consecutively; and the body weight of the mice and their tumor diameters were measured at each administration. The day of first administration was taken as the first day, and the experiment was stopped on the twelfth day when the mice were sacrificed after anesthesia, and tumors were separated from the bodies and the tumor weights were measured.

Setting [7] is: 20, 50 μM polypeptide combined with ATO 5 μM, in comparison with ATO alone.
Setting [8] is: polypeptide alone at a dose not exceeding 50 μM.
Where [9] appears, read: Example 3, 10 mg/kg intratumoral, alternate days, 5 times, 10 mg/kg.
Setting [10] is: Example 4, 10 mg/kg intratumoral, alternate days, 5 times, compared among polypeptides.

The values that follow come from patent US9745345B2, “Anti-tumor polypeptides and method for preparing anti-tumor drugs comprisng the same” (priority 2013, dated 2017).

Square brackets hold non-standard residues; d marks the D form. Ends that are not written are not given here. pS = N[C@@H](COP(=O)(O)O)C(=O)O; Ahx = NCCCCCC(=O)O

In the case of “6-aminoacetic acid-EEMQR [non-pep, reference compound]”, the tumor inhibition effect entry in test [1] (Example 3, 10 mg/kg intratumoral, alternate days, 5 times) was “no tumor inhibition effect”.

Consider “6-aminocaproic acid-(R)9—FPGSDRF ([Ahx]RRRRRRRRRFPG[pS]DRF) [CPP-JWA-6]”, for which the PARP-1 spliceosome result in the test with A375 cells [2] (setting [7]) and in the test on SGC7901 cells (setting [7]) was “significantly increased” in each case. Moreover, in the test with A375 cells [2] (setting [7]), the caspase-3 spliceosome result is “significantly increased”. For the same substance, the “changes in the expression of PARP-1” value with A375 cells [2] (setting [8]) and with SGC7901 cells (setting [8]) was “will not cause any changes” throughout.

On to “6-aminocaproic acid-FFPGSDRFA [JWA-1] ([Ahx]FFPG[pS]DRFA)”, for which the “inhibition effect on A375 cells” value in test [3] is “no inhibition effect”. Also, the “inhibition effect on subcutaneous tumor growth in nude mice” value in test [1] (Example 2, 10 mg/kg intratumoral, alternate days, 5 times, in comparison with PBS control group) is recorded as “more significant”. Besides, the “tumor weight to body weight ratio” value in test [1] (Example 2, 10 mg/kg intratumoral, alternate days, 5 times, in comparison with PBS control group, P<0.05) is given as “smaller”. Further, the tumor inhibition effect result in test [1] (setting [9]) is reported as “significant tumor inhibition effect”. Also, the “dose-effect relation of tumor inhibition” value in test [1] (Example 3, 5, 10 and 15 mg/kg intratumoral) is on record as “no trend of enhanced effect was detected along with dose increase”. Besides, in the test on A375 cells [4], the “cytoactivity of A375 cells, combined use with ATO” value is “no synergistic effect”. Also, in test [5], the “inhibition effect on B16F10 cells” value is listed as “no inhibition effect”.

As to “6-aminocaproic acid-FFPGSDRFA [JWA-7] ([Ahx]FFPGSDRFA)”, the tumor inhibition effect result in test [1] (setting [9]) was “no tumor inhibition effect”.

In the case of “6-aminocaproic acid-FPGSDRF-GGGG-RGD (Ac-[Ahx]FPG[pS]DRFGGGGRGD-NH2; SMILES CC(=O)NCCCCCC(=O)N[C@@H](Cc1ccccc1)C(=O)N1CCC[C@H]1C(=O)NCC(=O)N[C@@H](COP(=O)(O)O)C(=O)N[C@@H](CC(=O)O)C(=O)N[C@@H](CCCNC(=N)N)C(=O)N[C@@H](Cc1ccccc1)C(=O)NCC(=O)NCC(=O)NCC(=O)NCC(=O)N[C@@H](CCCNC(=N)N)C(=O)NCC(=O)N[C@@H](CC(=O)O)C(N)=O) [JWA-6+RGD]”, the tumor inhibition effect entry in test [6] (10 mg/kg intraperitoneal) is given as “a certain degree of tumor inhibition effect”; in test [6] (50 mg/kg intraperitoneal) it was “better tumor inhibition effect”.

Regarding 6-aminocaproic acid-GSD [JWA-4], the tumor inhibition effect entry in test [1] (setting [10]) is given as “significantly worse than that of polypeptide JWA-6”.

On to “6-aminocaproic acid-PGSDR ([Ahx]PG[pS]DR) [JWA-5]”, for which the “inhibition effect on A375 cells” value in test [3] was “no inhibition effect”. Besides, the tumor inhibition effect result in test [1] (setting [10]) is “significantly worse than that of polypeptide JWA-6”. Besides, the “inhibition effect on B16F10 cells” value in test [5] is “no inhibition effect”.
